Source: paper PMC11510191, “Exploring Benzo[h]chromene Derivatives as Agents against Protozoal and Mycobacterial Infections” (Pharmaceuticals, 2024)
In brackets after ≈: the same amount, converted by molar mass. Like-named read-outs stand apart in the source and are kept apart here.

What was measured:
[1] = test system: M. abscessus LIID-01; assay: MIC broth microdilution; type: cell-based; conditions: Mycobacteroides abscessus, LIID01, 72 h
[2] = test system: M. abscessus LIID-02; assay: MIC broth microdilution; type: cell-based; conditions: Mycobacteroides abscessus, LIID02, 72 h
[3] = test system: M. abscessus LIID-03; assay: MIC broth microdilution; type: cell-based; conditions: Mycobacteroides abscessus, LIID03, 72 h
[4] = test system: M. fortuitum LIID-01; assay: MIC broth microdilution; type: cell-based; conditions: Mycolicibacterium fortuitum, LIID01, 72 h
[5] = test system: M. intracellulare LIID-01; assay: MIC broth microdilution; type: cell-based; conditions: Mycobacterium intracellulare, LIID01
[6] = test system: M. intracellulare LIID-02; assay: MIC broth microdilution; type: cell-based; conditions: Mycobacterium intracellulare, LIID02
[7] = test system: T. cruzi epimastigotes; assay: Trypanocidal activity on T. cruzi epimastigotes (CL-B5 lacZ, CPRG); type: cell-based, Trypanosoma cruzi clone CL-B5; conditions: for IC50: Trypanosoma cruzi, 72 h; for Selectivity Index L929/ T. cruzi: SI = CC50 L929/IC50 parasites
Procedure: For in vitro studies of T. cruzi. the clone CL-B5 was used. Parasites were stably transfected with the Escherichia coli β-galactosidase gene (lacZ), provided by Facultad de Farmacia (Universidad Complutense de Madrid). Epimastigotes were grown at 28 °C in liver infusion tryptose broth (Difco, Detroit, MI, USA) with 10% fetal bovine serum (FBS) (Gibco, Carlsbad, CA, USA), penicillin (Ern S.A., Barcelona, Spain), and streptomycin (Reig Jofré S.A., Barcelona. Spain), as described previously, and harvested during the exponential growth phase. Briefly, the screening assay was performed in 96-well microplates (Sarstedt, Inc., Newton, NC, USA) with cultures that had not reached the stationary phase. Briefly, epimastigotes were seeded at 2 × 10^5 parasites/mL in 200 µL growth media. The plates were then incubated with the respective compounds at 28 °C for 72 h. Afterwards, 50 µL of CPRG solution was added, resulting in a final concentration of 200 µM. The plates were incubated at 37 °C for an additional 4 h and then read at 595 nm. Each concentration was tested in triplicate. […] These values were calculated from the sigmoidal dose–response curve adjustment using the statistical software program Graph-Pad Prims 3.0. Benznidazole was used as a reference drug.

[8] = Cytotoxicity on L929 fibroblasts (resazurin); conditions: mouse
[9] = test system: Leishmania infantum (L. i) promastigotes; assay: Leishmanicidal activity on L. infantum promastigotes (resazurin); conditions: for IC50: Leishmania infantum, 48 h, read-out: Leishmanicidal Activity IC50—L. i
Procedure: (§1) The culture of L. braziliensis (MHOM/CO/88/UA301) and L. infantum (MCAN/ES/92/BCN83) was obtained from the Facultad de Farmacia, Universidad Complutense de Madrid, Spain.
(§2) The maintenance of the strains, the form of cultivation, and the isolation of shape promastigota followed the procedures described by Roldós et al. [8]. The promastigotes were grown at 22 °C in Schneider’s Drosophila medium supplemented with 20% FBS. The assay was performed using a modification of a previous method [47]. Promastigotes (2 × 10^6 parasites/well) were cultured in 96-well plastic plates. Compounds were dissolved in dimethylsulfoxide (DMSO). Different dilutions of the compounds up to a 200 µL final volume were added. After 48 h at 26 °C, 20 µL of 2 mM resazurin solution was added and the oxidation–reduction was quantified at 570 and 600 nm. The solution of resazurin was prepared at 2.5 mM in phosphate-buffered solution (PBS), pH 7.4, and filtered through 0.22 µM prior to use. All tests were carried out in triplicate. Resazurin sodium salt was obtained from Sigma–Aldrich (St. Louis, MO, USA) and stored at 4 °C protected from light. The efficacy of each compound was estimated by calculating the IC50 values.

[10] = test system: Leishmania brazilensis (L. b) promastigotes; assay: Leishmanicidal activity on L. braziliensis promastigotes (resazurin); conditions: for IC50: Leishmania, 48 h, read-out: Leishmanicidal Activity IC50—L. b
Procedure: as §1, §2

[11] = test system: M. tuberculosis CIPTIR -D152; assay: MIC broth microdilution; type: cell-based; conditions: Mycobacterium tuberculosis
[12] = test system: M. tuberculosis CIPTIR-F296; assay: MIC broth microdilution; type: cell-based; conditions: Mycobacterium tuberculosis, CIPTIRF296
[13] = test system: M. tuberculosis ATCC H37Rv; assay: MIC broth microdilution; type: cell-based; conditions: Mycobacterium tuberculosis
[14] = test system: E. coli (G−); assay: MIC broth microdilution; type: cell-based; conditions: Escherichia coli, 24 h
[15] = test system: P. aeruginosa (G−); assay: MIC broth microdilution; type: cell-based; conditions: Pseudomonas aeruginosa, 24 h
[16] = test system: S. typhi (G−); assay: MIC broth microdilution; type: cell-based; conditions: Salmonella enterica, 24 h
[17] = test system: S. aureus (G+); assay: MIC broth microdilution; type: cell-based; conditions: Staphylococcus aureus, 24 h
[18] = test system: L. innocua (G+); assay: MIC broth microdilution; type: cell-based; conditions: Listeria innocua, 24 h
[19] = test system: L. monocytogenes (G+); assay: MIC broth microdilution; type: cell-based; conditions: Listeria monocytogenes, 24 h
[20] = test system: E. faecalis (G+); assay: MIC broth microdilution; type: cell-based; conditions: Enterococcus faecalis, 24 h
[21] = test system: B. cereus (G+); assay: MIC broth microdilution; type: cell-based; conditions: Bacillus cereus, 24 h
[22] = test system: M. luteus (G+); assay: MIC broth microdilution; type: cell-based; conditions: Micrococcus luteus, 24 h
[23] = epimastigotes, read-out: Trypanocidal Activity IC50 T. cruzi

Structure (SMILES) | IC50 [7, 23] [µM] | CC50 at 24 h [8] [µM] | IC50 [9] [µM] | IC50 [10] [µM] | further results
CC(=O)NC[C@H]1CN(c2ccc(N3CCOCC3)c(F)c2)C(=O)O1 [Linezolid, reference compound] |  |  |  |  | MIC [1]: 1 µg/mL (≈ 2.96 µM); MIC [2]: 1 µg/mL (≈ 2.96 µM); MIC [3]: 1 µg/mL (≈ 2.96 µM); MIC [4]: 8 µg/mL (≈ 23.7 µM); MIC [5]: 2 µg/mL (≈ 5.93 µM); MIC [6]: 8 µg/mL (≈ 23.7 µM)
CC1(C)C=Cc2c(OC(=O)CCc3cn(Cc4ccc(Br)cc4)nn3)c(OC(=O)CCc3cn(Cc4ccc(Br)cc4)nn3)c3ccccc3c2O1 [Compound 2i] | > 256 | > 256 | > 256 | > 256 | 
CC1(C)C=Cc2c(OC(=O)CCc3cn(-c4ccc(Cl)cc4)nn3)c(OC(=O)CCc3cn(-c4ccc(Cl)cc4)nn3)c3ccccc3c2O1 [Compound 2c] | > 256 | > 256 | > 256 | > 256 | 
CC(=O)O[C@@H]1[C@@H](OC(C)=O)[C@H](OC(C)=O)CO[C@H]1n1cc(CCC(=O)Oc2c3c(c4ccccc4c2OC(=O)CCc2cn([C@@H]4OC[C@@H](OC(C)=O)[C@H](OC(C)=O)[C@H]4OC(C)=O)nn2)OC(C)(C)C=C3)nn1 [Compound 2e] | > 256 | > 256 | > 256 | > 256 | 
CC1(C)C=Cc2c(OC(=O)CCc3cn(-c4ccccc4)nn3)c(OC(=O)CCc3cn(-c4ccccc4)nn3)c3ccccc3c2O1 [Compound 2a] | 68.7 | > 256 | > 256 | > 256 | Selectivity Index L929/ T. cruzi [7]: >4
Cc1ccc(-n2cc(CCC(=O)Oc3c4c(c5ccccc5c3OC(=O)CCc3cn(-c5ccc(C)cc5)nn3)OC(C)(C)C=C4)nn2)cc1 [Compound 2d] | > 256 | > 256 | > 256 | > 256 | 
CC1(C)C=Cc2c(OC(=O)CCCc3cn(-c4cccc(Cl)c4)nn3)c(OC(=O)CCCc3cn(-c4cccc(Cl)c4)nn3)c3ccccc3c2O1 [Compound 3g] | 146 | > 384 | > 256 | > 256 | Selectivity Index L929/ T. cruzi [7]: >3
CO[C@H]1/C=C/O[C@@]2(C)Oc3c(C)c(O)c4c(O)c(c(/C=N/N5CCN(C)CC5)c(O)c4c3C2=O)NC(=O)/C(C)=C\C=C\[C@H](C)[C@H](O)[C@@H](C)[C@@H](O)[C@@H](C)[C@H](OC(C)=O)[C@@H]1C [Rifampicin, reference compound] |  |  |  |  | MIC ([11]; M. tuberculosis CIPTIR -D152, read-out: MIC): 32 µg/mL (≈ 38.9 µM); MIC ([12]; M. tuberculosis CIPTIR-F296, read-out: MIC): 1 µg/mL (≈ 1.22 µM); MIC ([13]; M. tuberculosis ATCC H37Rv, read-out: MIC): 2 µg/mL (≈ 2.43 µM)
CC1(C)C=Cc2c(OC(=O)CCCc3cn(-c4ccc(Cl)cc4)nn3)c(OC(=O)CCCc3cn(-c4ccc(Cl)cc4)nn3)c3ccccc3c2O1 [Compound 3c] | > 256 | > 256 | > 256 | > 256 | 
CC1(C)C=Cc2c(OC(=O)CCCc3cn(Cc4ccc([N+](=O)[O-])cc4)nn3)c(OC(=O)CCCc3cn(Cc4ccc([N+](=O)[O-])cc4)nn3)c3ccccc3c2O1 [Compound 3h] | > 256 | > 256 | > 256 | > 256 | MIC [11]: > 200 µg/mL; MIC [12]: > 200 µg/mL; MIC ([13]; H37RV): > 200 µg/mL; MIC [1]: 100 µg/mL (≈ 127 µM); MIC [2]: 100 µg/mL (≈ 127 µM); MIC [3]: 100 µg/mL (≈ 127 µM); MIC [4]: > 200 µg/mL; MIC [5]: > 200 µg/mL; MIC [6]: > 200 µg/mL; MIC [14]: > 200 µg/mL; MIC [15]: > 200 µg/mL; MIC [16]: 100 µg/mL (≈ 127 µM); MIC [17]: 100 µg/mL (≈ 127 µM); MIC [18]: > 200 µg/mL; MIC [19]: > 200 µg/mL; MIC [20]: > 200 µg/mL; MIC [21]: > 200 µg/mL; MIC [22]: > 200 µg/mL
CC(=O)O[C@@H]1[C@@H](OC(C)=O)[C@H](OC(C)=O)CO[C@H]1n1cc(CCCC(=O)Oc2c3c(c4ccccc4c2OC(=O)CCCc2cn([C@@H]4OC[C@@H](OC(C)=O)[C@H](OC(C)=O)[C@H]4OC(C)=O)nn2)OC(C)(C)C=C3)nn1 [Compound 3e] | > 256 | > 256 | > 256 | > 256 | MIC [11]: > 200 µg/mL; MIC [12]: > 200 µg/mL; MIC ([13]; H37RV): > 200 µg/mL; MIC [1]: > 200 µg/mL; MIC [2]: > 200 µg/mL; MIC [3]: > 200 µg/mL; MIC [4]: > 200 µg/mL; MIC [5]: 50 µg/mL (≈ 48.4 µM); MIC [6]: > 200 µg/mL; MIC [14]: > 200 µg/mL; MIC [15]: > 200 µg/mL; MIC [16]: 100 µg/mL (≈ 96.8 µM); MIC [17]: > 200 µg/mL; MIC [18]: > 200 µg/mL; MIC [19]: > 200 µg/mL; MIC [20]: > 200 µg/mL; MIC [21]: > 200 µg/mL; MIC [22]: > 200 µg/mL
Cc1ccc(-n2cc(CCCC(=O)Oc3c4c(c5ccccc5c3OC(=O)CCCc3cn(-c5ccc(C)cc5)nn3)OC(C)(C)C=C4)nn2)cc1 [Compound 3d] | > 256 | > 256 | > 256 | > 256 | 
C[C@@H](O)[C@H]1C(=O)N2C(C(=O)O)=C(SCCN=CN)C[C@H]12 [Imipenem, reference compound] |  |  |  |  | MIC [1]: 32 µg/mL (≈ 107 µM); MIC [2]: 32 µg/mL (≈ 107 µM); MIC [3]: 8 µg/mL (≈ 26.7 µM); MIC [4]: 4 µg/mL (≈ 13.4 µM); MIC [5]: 1 µg/mL (≈ 3.34 µM); MIC [6]: > 64 µg/mL
C#CCCCC(=O)Oc1c2c(c3ccccc3c1OC(=O)CCCC#C)OC(C)(C)C=C2 [Compound 1b] | 37.3 | 128 | 30.5 | 6.7 | Selectivity Index L929/ T. cruzi [7]: 3; Selectivity Index L929/ L. i ([9]; SI = CC50 L929/IC50 parasites): 4; Selectivity Index L929/ L. b ([10]; SI = CC50 L929/IC50 parasites): 19
CNC(C)C1CCC(N)C(OC2C(N)CC(N)C(OC3OCC(C)(O)C(NC)C3O)C2O)O1 (centres unmarked) [Gentamicin, reference compound] |  |  |  |  | MIC [14]: 0.2 µg/mL (≈ 0.419 µM); MIC [15]: 0.78 µg/mL (≈ 1.63 µM); MIC [16]: 0.1 µg/mL (≈ 0.209 µM); MIC [17]: 0.1 µg/mL (≈ 0.209 µM); MIC [18]: 1.56 µg/mL (≈ 3.27 µM); MIC [19]: 0.2 µg/mL (≈ 0.419 µM); MIC [20]: 0.78 µg/mL (≈ 1.63 µM); MIC [21]: 0.78 µg/mL (≈ 1.63 µM); MIC [22]: 0.78 µg/mL (≈ 1.63 µM)
COc1ccc(-n2cc(CCC(=O)Oc3c4c(c5ccccc5c3OC(=O)CCc3cn(-c5ccc(OC)cc5)nn3)OC(C)(C)C=C4)nn2)cc1 [Compound 2b] | 204 | > 256 | > 256 | > 256 | Selectivity Index L929/ T. cruzi [7]: >1
CC1(C)C=Cc2c(OC(=O)CCc3cn(Cc4ccc([N+](=O)[O-])cc4)nn3)c(OC(=O)CCc3cn(Cc4ccc([N+](=O)[O-])cc4)nn3)c3ccccc3c2O1 [Compound 2h] | > 256 | > 256 | > 256 | > 256 | 
CC1(C)C=Cc2c(OC(=O)CCc3cn(-c4cccc(Cl)c4)nn3)c(OC(=O)CCc3cn(-c4cccc(Cl)c4)nn3)c3ccccc3c2O1 [Compound 2g] |  | > 384 | > 256 | > 256 | IC50 ([7]; read-out: Trypanocidal Activity IC50 T. cruzi, epimastigotes, 72 h): > 256 µM
CC1(C)C=Cc2c(OC(=O)CCCc3cn(-c4ccccc4)nn3)c(OC(=O)CCCc3cn(-c4ccccc4)nn3)c3ccccc3c2O1 [Compound 3a] | > 256 | > 256 | > 256 | > 256 | 
O=C(Cn1ccnc1[N+](=O)[O-])NCc1ccccc1 [Benznidazole, reference compound] | 54.7 | 769 |  |  | Selectivity Index L929/ T. cruzi [7]: 14.0
CC1(C)C=Cc2c(OC(=O)CCCc3cn(Cc4ccc(Br)cc4)nn3)c(OC(=O)CCCc3cn(Cc4ccc(Br)cc4)nn3)c3ccccc3c2O1 [Compound 3i] | > 256 | > 256 | > 256 | > 256 | 
COc1ccc(-n2cc(CCCC(=O)Oc3c4c(c5ccccc5c3OC(=O)CCCc3cn(-c5ccc(OC)cc5)nn3)OC(C)(C)C=C4)nn2)cc1 [Compound 3b] | > 256 | > 256 | > 256 | > 256 | 
